Counter-ions that a name gives are not always drawn. Like-named read-outs stand apart in the source and are kept apart here.
Columns and labels:
Caco-2 cells = assay: Caco-2 bidirectional permeability; assay type: in vitro ADME, human; conditions: for % Recovery A − B / Papp A − B: apical to basolateral; for % Recovery A − B / Papp A − B / % Recovery B − A / Papp B − A: 2-hr; for % Recovery B − A / Papp B − A: basolateral to apical; for Permeability: class from Papp A-B; for Significant Efflux: significant: efflux ratio above 3.0 and Papp B-A >1.0×10^−6 cm/s; for Efflux ratio: (Papp B − A)/(Papp A − B)
From the text: (§1) Such a procedure helps understanding the suitability of the compound for oral dosing by measuring the rate of transport of the molecule across the Caco-2 cells, which have characteristics that resemble intestinal epithelial cells. Transport in both directions (apical to basolateral (A-B) and basolateral to apical (B-A)) across the cell monolayer was monitored over a 2-hr time period in order to evaluate the efflux ratio, an indicator of whether the compound undergoes significant active efflux or not. The permeability coefficient (Papp) is calculated from the equation: […]
(§2) Where dQ/dt is the rate of permeation of the drug across the cells, Co is the donor compartment concentration at time zero and A is the area of the cell monolayer. Co is obtained from analysis of the dosing solution at the start of the experiment. The analysis method used was LCMS quantification.
(§3) A permeability of (Papp A-B)<1.0×10^−6 cm/s is considered low, whereas a permeability of (Papp A-B)>1.0×10^−6 cm/s is considered high. A significant efflux is generally associated with an efflux ratio above 3.0 and a (Papp B-A)>1.0×10^−6 cm/s in these assay conditions.

[1] = 100 μM, 37° C.; simulated gastric fluid pH 1.2 up to 60 min, simulated intestinal fluid pH 6.8 and acetate buffer pH 5 up to 180 min
Procedure: Pyridinium 3-thiocarbamoyl-benzenesulfonate and pyridinium 4-thiocarbamoyl-benzenesulfonate (100 μM) were separately incubated at 37° C. in simulated gastric fluid (pH 1.2; without pepsin) up to 60 min, in simulated intestinal fluid (pH 6.8, without procreatin) up to 180 min, and in acetate buffer (pH 5) up to 180 min. At time points of 0, 30, 60, 120 and 180 min, an aliquot of 10 μL of samples were removed and added into vials containing […] internal standard (labetalol) in a mixture of 25:75 acetonitrile:water. Samples were analyzed by HPLC-MS/MS (ESI-, MRM) to monitor disappearance of its counter-ion over the time.

[2] = solid-state stability of trimebutine salts of carboxylic acids; conditions: 1:1 molar ratio; salts dissociate with heat and/or time
[3] = cited from earlier work
human hepatocytes = assay: in-vitro metabolism over human hepatocytes; conditions: 10 μM, up to 120 min at 37° C.
Procedure: (§4) Human, dog and rat cryopreserved hepatocytes (Celsis-IVT; n=10 pooled donors) were thawed according to the recommended protocol of the cell provider. Cells were then diluted to 1 million viable cells per mL, plated in a 96-well plate (100 μL per well), and pre-incubated 20 min at 37° C. under 95:5 O2:CO2 atmosphere. Following addition of test compounds (10 μM; 1 μL of 1 mM stock solution (95:5 acetonitrile/DMSO) per well), cells were incubated with lid on up to 120 min at 37° C. under 95:5 O2:CO2 atmosphere. At time points 0, 15, 60 and 120 min, 100 μL of acetonitrile containing an internal standard (1 μM labetalol) was added to quench incubates, and the plate was centrifuged (5 min; 15K rpm). Supernatant was diluted 1:2 with water and analyzed by HPLC-MS/MS (ESI-). The MS2 scan mode was used instead of the MRM mode, in order to manually extract the Extracted Ion Current (EIC) of two potential metabolites: 3-cyanobenzenesulfonate and sodium 3-sulfobenzoate.

dog hepatocytes = assay: in-vitro metabolism over dog hepatocytes; conditions: 10 μM, up to 120 min at 37° C.
Procedure: as §4

rat hepatocytes = assay: in-vitro metabolism over rat hepatocytes; conditions: 10 μM, up to 120 min at 37° C.
Procedure: as §4

[4] = quantification of counter-ion and metabolites in urine and feces of rats; assay type: in vivo; conditions: 500 mg/kg p.o., 48 hr collection
Procedure: A preliminary toxicological evaluation of the compound was done in 250-300 g male Sprague-Dawley rats. Animals were randomized into one of three dosing group, i.e. 250, 500 or 1,000 mg/kg administered by oral gavage. Following administration of the test article, animals were observed hourly for the first 8 hr post-dosing for clinical signs and twice daily thereafter until termination on Day 7. Three animals per group were sacrificed by exsanguination under general anesthesia at 24-hr post dosing or on Day 7 and a gross necropsy was performed in all animals. Additionally, all three rats having received the 500 mg/kg dose and scheduled for sacrifice on Day 7 were placed in individual metabolic cages immediately following test article administration, in order to collect feces and urine during 48 hr. Blood samples were collected terminally from each rat for hematology and serum chemistry evaluation.
After proper urine and feces samples preparation, trimebutine 3-thiocarbamoyl-benzenesulfonate and its two metabolites were assayed by HPLC-MS/MS (ESI-), in MRM mode. Calibration curves were prepared for each analyte, in both matrices (diluted blank urine and diluted blank feces).

[5] = Caco-2 bidirectional permeability; assay type: in vitro ADME, human; conditions: human; for efflux ratio at 2 h: (Papp B − A)/(Papp A − B)
From the text: as §1, §2, §3

Sprague-Dawley rats = assay: p.o. pharmacokinetic study in rats, toxicological assessment; assay type: in vivo; conditions: single dose of 230 and 460 mg/kg p.o.
Procedure: In order to evaluate the absolute bioavailability of trimebutine 4-toluenesulfonate (Example 22), an in-vivo pharmacological study was carried out in 6 Sprague-Dawley rats, which were administered a single dose of 230 and 460 mg/kg of the compound by the oral gavage route (p.o.). During this study, assessments included mortality checks and clinical observations. Blood samples were also collected for pharmacokinetic evaluations at 10 time points.

mu-opioid receptors = conditions: cited from earlier work
kappa-opioid receptors = kappa-opioid receptors (Cavia porcellus, UniProt P41144); conditions: cited from earlier work
kappa-opioid receptors, sequence (P41144 whole entry): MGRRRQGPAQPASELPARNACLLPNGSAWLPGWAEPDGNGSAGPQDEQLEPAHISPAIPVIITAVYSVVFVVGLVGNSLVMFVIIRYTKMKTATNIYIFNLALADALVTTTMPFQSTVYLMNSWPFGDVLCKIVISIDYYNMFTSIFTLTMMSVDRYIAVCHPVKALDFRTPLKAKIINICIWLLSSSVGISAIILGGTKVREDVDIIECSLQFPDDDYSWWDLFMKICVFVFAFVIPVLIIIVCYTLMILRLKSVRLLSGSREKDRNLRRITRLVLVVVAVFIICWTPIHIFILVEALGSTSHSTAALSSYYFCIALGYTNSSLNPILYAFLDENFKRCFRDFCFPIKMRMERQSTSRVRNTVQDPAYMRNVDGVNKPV

[6] = Caco-2, apical to basolateral, 2-hr, read-out: % Recovery A − B
[7] = Caco-2, apical to basolateral, 2-hr, read-out: Papp A − B
[8] = Caco-2, class from Papp A-B, read-out: Permeability
[9] = Caco-2, basolateral to apical, 2-hr
[10] = Caco-2, basolateral to apical, 2-hr, read-out: % Recovery B − A

Compound: pyridinium 4-thiocarbamoylbenzenesulfonate
- % Recovery A − B (Caco-2 cells): 106%
- Papp A − B (Caco-2 cells): <0.54 ×10⁻⁶ cm/s
- % Recovery B − A (Caco-2 cells): 116%
- Papp B − A (Caco-2 cells): <0.68 ×10⁻⁶ cm/s
- Permeability (Caco-2 cells): Low (A permeability of (Papp A-B)<1.0×10^−6 cm/s is considered low)
- Significant Efflux (Caco-2 cells): No
- stability of counter-ion (disappearance over time) [1]: stable in all these media

Compound: O=C(O)c1ccccc1 [benzoic acid]
- stability of the trimebutine salt in the solid state [2]: unstable salt

Compound: O=S(=O)(O)c1ccccn1 [Example 7, 2-Pyridinesulfonic acid]
- melting point: 131 °C

Compound: NC(=O)c1cccc(S(=O)(=O)O)c1 (as salt: potassium)
- melting point: 223 °C

Compound: NC(=S)c1ccc(C(=O)O)cc1 [4-thiocarbamoylbenzoic acid]
- stability of the trimebutine salt in the solid state [2]: unstable salt
- pKa [3]: ~3.3

Compound: NC(=S)c1cccc(S(=O)(=O)O)c1
- Efflux ratio (Caco-2 cells): 1.2
- % Recovery A − B (Caco-2 cells): 63%
- Papp A − B (Caco-2 cells): 0.28 ×10⁻⁶ cm/s
- % Recovery B − A (Caco-2 cells): 82%
- Papp B − A (Caco-2 cells): 0.33 ×10⁻⁶ cm/s
- Permeability (Caco-2 cells): Low (A permeability of (Papp A-B)<1.0×10^−6 cm/s is considered low)
- Significant Efflux (Caco-2 cells): No
- metabolic stability (human hepatocytes): remained intact
- metabolic stability (dog hepatocytes): remained intact
- metabolic stability (rat hepatocytes): remained intact
- 3-cyanobenzenesulfonate found in feces, share of administered dose [4]: about 4%
- 3-sulfobenzoate found, share of administered dose [4]: 0.3%
- share of total counter-ion administered orally found in feces [4]: About 80%
- share of total counter-ion administered orally found in urine [4]: ~20%

Compound: O=S(=O)(O)c1cccnc1 [Example 8, 3-Pyridinesulfonic acid]
- melting point: 119 °C

Compound: O=C([O-])c1cccc(S(=O)(=O)O)c1.[Na+] [Sodium 3-sulfobenzoate, reference compound]
- Significant Efflux (Caco-2 cells): No
- recovery at 2 h [5, 6]: 93%
- Papp A→B at 2 h [5, 7]: 0.59 ×10⁻⁶ cm/s
- Papp A→B at 2 h [5, 8]: < 1 ×10⁻⁶ cm/s
- efflux ratio at 2 h ([5]; Caco-2): 1
- Papp B→A at 2 h [5, 9]: 0.59 ×10⁻⁶ cm/s
- recovery at 2 h [5, 10]: 115%

Compound: pyridinium 3-cyanobenzenesulfonate [Pyridinium 3-cyano-benzenesulfonate]
- Efflux ratio (Caco-2 cells): 2.0
- % Recovery A − B (Caco-2 cells): 84%
- Papp A − B (Caco-2 cells): 0.44 ×10⁻⁶ cm/s
- % Recovery B − A (Caco-2 cells): 72%
- Papp B − A (Caco-2 cells): 0.87 ×10⁻⁶ cm/s
- Permeability (Caco-2 cells): Low (A permeability of (Papp A-B)<1.0×10^−6 cm/s is considered low)
- Significant Efflux (Caco-2 cells): No

Compound: CCC(COC(=O)c1cc(OC)c(OC)c(OC)c1)(c1ccccc1)N(C)C (centres unmarked)
- Efflux ratio (Caco-2 cells): 1.0
- % Recovery A − B (Caco-2 cells): 51%
- Papp A − B (Caco-2 cells): 23.2 ×10⁻⁶ cm/s
- % Recovery B − A (Caco-2 cells): 62%
- Papp B − A (Caco-2 cells): 24.3 ×10⁻⁶ cm/s
- Permeability (Caco-2 cells): High (a permeability of (Papp A-B)>1.0×10^−6 cm/s is considered high)

Compound: CCC(COC(=O)c1cc(OC)c(OC)c(OC)c1)(c1ccccc1)N(C)C (centres unmarked) [Example 22, trimebutine 4-toluenesulfonate salt]
- Permeability (Caco-2 cells): high
- Significant Efflux (Caco-2 cells): No
- recovery at 2 h [5, 6]: 58%
- Papp A→B at 2 h [5, 7]: 23.9 ×10⁻⁶ cm/s
- Papp A→B at 2 h [5, 8]: > 1 ×10⁻⁶ cm/s
- efflux ratio at 2 h ([5]; Caco-2): 0.9
- Papp B→A at 2 h [5, 9]: 21.7 ×10⁻⁶ cm/s
- recovery at 2 h [5, 10]: 76%
- bodyweight (Sprague-Dawley rats): no change in bodyweight
- death (Sprague-Dawley rats): no death reported
- toxicity (Sprague-Dawley rats): no indication of any toxicity

Compound: CCC(COC(=O)c1cc(OC)c(OC)c(OC)c1)(c1ccccc1)N(C)C (centres unmarked) [Trimebutine, 3,4,5-trimethoxybenzoic acid 2-(dimethylamino)-2-phenylbutylester]
- affinity to mu-opioid receptors (mu-opioid receptors): micromolar
- pKa [3]: ~6.25
- metabolic stability (human hepatocytes): capable of metabolizing trimebutine
- metabolic stability (dog hepatocytes): capable of metabolizing trimebutine
- affinity to kappa-opioid receptors (kappa-opioid receptors): micromolar
- metabolic stability (rat hepatocytes): capable of metabolizing trimebutine

Compound: N#Cc1cccc(S(=O)(=O)O)c1 [Example 14, 3-Cyano benzenesulfonic acid]
- melting point: 129 °C
